In the supplement of paper PMC6045584:
± gives the standard deviation of the averaged measurements.

Columns and labels:
[1] = compound: COc1cc2ncnc(Nc3ccc(F)c(Cl)c3)c2cc1NC(=O)/C=C/CN1CCCCC1; test: surviving fraction relative to DMSO-only wells; higher = less growth inhibition; details: exposure time: 5 days
How it was run: (§1)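 Surviving fraction is CellTiter-Glo luminescence divided by the median of wells given DMSO only. For this, log-phase tumour cell lines went into 384-well plates at 250–500 cells per well and, 24 hours later, into five days of continuous inhibitor exposure at 0.5, 1, 5, 10, 50, 100, 500 and 1000 nM. Lines were screened three times and retained only if replicate Pearson r >0.7 and median Z' >0.3.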

OLAPARIB = compound: O=C(c1cc(Cc2n[nH]c(=O)c3ccccc23)ccc1F)N1CCN(C(=O)C2CC2)CC1 [OLAPARIB]; test: as above; details: exposure time: 5 days
How it was run: as §1

| Test System | surviving fraction ([1]; 0.5 nM) | surviving fraction ([1]; 1 nM) | surviving fraction ([1]; 5 nM) | surviving fraction ([1]; 10 nM) | surviving fraction ([1]; 50 nM) | surviving fraction ([1]; 100 nM) | surviving fraction ([1]; 500 nM) | surviving fraction ([1]; 1000 nM) | surviving fraction (OLAPARIB; 0.5 nM) | surviving fraction (OLAPARIB; 1 nM) | surviving fraction (OLAPARIB; 5 nM) | surviving fraction (OLAPARIB; 10 nM) | surviving fraction (OLAPARIB; 50 nM) | surviving fraction (OLAPARIB; 100 nM) | surviving fraction (OLAPARIB; 500 nM) | surviving fraction (OLAPARIB; 1000 nM) |
| --- | --- | --- | --- | --- | --- | --- | --- | --- | --- | --- | --- | --- | --- | --- | --- | --- |
| SG27 HEADNECK | 1.06 ± 0.071 | 1.16 ± 0.22 | 0.944 ± 0.14 | 0.937 ± 0.07 | 0.927 ± 0.014 | 1.01 ± 0.061 | 0.988 ± 0.015 | 0.864 ± 0.024 | 1 ± 0.049 | 1.05 ± 0.14 | 0.969 ± 0.093 | 0.991 ± 0.1 | 0.916 ± 0.074 | 0.995 ± 0.092 | 0.981 ± 0.22 | 1.02 ± 0.11 |
| SG28 HEADNECK | 0.962 ± 0.064 | 0.924 ± 0.058 | 0.626 ± 0.026 | 0.54 ± 0.013 | 0.514 ± 0.029 | 0.494 ± 0.025 | 0.375 ± 0.037 | 0.238 ± 0.019 | 1.12 ± 0.13 | 0.982 ± 0.12 | 1.02 ± 0.09 | 0.952 ± 0.088 | 0.914 ± 0.13 | 0.887 ± 0.13 | 0.928 ± 0.024 | 0.926 ± 0.065 |
| SG31 HEADNECK | 0.973 ± 0.13 | 0.87 ± 0.19 | 0.617 ± 0.16 | 0.624 ± 0.086 | 0.556 ± 0.14 | 0.519 ± 0.07 | 0.486 ± 0.1 | 0.524 ± 0.021 | 1.17 ± 0.27 | 1.09 ± 0.061 | 1.02 ± 0.12 | 0.985 ± 0.16 | 0.932 ± 0.18 | 0.908 ± 0.13 | 0.946 ± 0.073 | 0.962 ± 0.073 |
| SG32 HEADNECK | 1.24 ± 0.15 | 0.962 ± 0.098 | 0.846 ± 0.018 | 0.958 ± 0.046 | 0.819 ± 0.071 | 0.865 ± 0.029 | 0.695 ± 0.061 | 0.301 ± 0.034 | 1.23 ± 0.41 | 1.43 ± 0.2 | 1.23 ± 0.4 | 1.24 ± 0.15 | 1.03 ± 0.054 | 1.05 ± 0.22 | 0.77 ± 0.042 | 0.795 ± 0.081 |
| SG43 HEADNECK | 0.807 ± 0.14 | 0.929 ± 0.044 | 0.529 ± 0.18 | 0.341 ± 0.057 | 0.199 ± 0.018 | 0.226 ± 0.022 | 0.281 ± 0.095 | 0.196 ± 0.057 | 1.18 ± 0.24 | 0.979 ± 0.16 | 0.835 ± 0.043 | 0.882 ± 0.095 | 1.19 ± 0.025 | 1.01 ± 0.059 | 0.982 ± 0.11 | 0.935 ± 0.042 |
| SIHA CERVIX | 1.05 ± 0.12 | 0.994 ± 0.043 | 1.02 ± 0.082 | 1.1 ± 0.074 | 1.04 ± 0.11 | 1.06 ± 0.11 | 0.862 ± 0.055 | 0.672 ± 0.067 | 0.988 ± 0.022 | 1.07 ± 0.13 | 1.02 ± 0.073 | 1.03 ± 0.044 | 0.967 ± 0.053 | 1.04 ± 0.061 | 0.91 ± 0.067 | 0.886 ± 0.061 |
| SJSA1 BONE | 1.04 ± 0.071 | 1.08 ± 0.072 | 1.05 ± 0.053 | 1.09 ± 0.016 | 1.1 ± 0.043 | 1.14 ± 0.074 | 1.04 ± 0.072 | 1.01 ± 0.03 | 1 ± 0.025 | 1.01 ± 0.045 | 1.03 ± 0.061 | 1.02 ± 0.066 | 1.01 ± 0.083 | 0.963 ± 0.024 | 0.931 ± 0.051 | 0.876 ± 0.039 |
| SKBR3 BREAST | 0.879 ± 0.038 | 0.983 ± 0.089 | 0.522 ± 0.041 | 0.471 ± 0.03 | 0.195 ± 0.0032 | 0.161 ± 0.017 | 0.145 ± 0.018 | 0.105 ± 0.018 | 1.02 ± 0.1 | 1.05 ± 0.15 | 0.939 ± 0.12 | 1 ± 0.21 | 0.922 ± 0.14 | 0.935 ± 0.093 | 0.79 ± 0.13 | 0.813 ± 0.072 |
| SNU475 LIVER | 0.967 ± 0.017 | 0.96 ± 0.017 | 0.92 ± 0.037 | 0.927 ± 0.086 | 0.897 ± 0.022 | 0.895 ± 0.05 | 0.698 ± 0.038 | 0.481 ± 0.028 | 1 ± 0.079 | 0.957 ± 0.032 | 1 ± 0.039 | 0.994 ± 0.07 | 0.893 ± 0.059 | 0.8737 ± 0.0067 | 0.918 ± 0.013 | 0.838 ± 0.016 |
| SUM44 BREAST | 1.01 ± 0.028 | 1.03 ± 0.031 | 1.01 ± 0.05 | 1.01 ± 0.053 | 1.03 ± 0.06 | 1.07 ± 0.018 | 0.916 ± 0.044 | 0.727 ± 0.0096 | 0.903 ± 0.012 | 0.911 ± 0.059 | 0.924 ± 0.083 | 0.909 ± 0.071 | 0.97 ± 0.068 | 0.958 ± 0.063 | 0.894 ± 0.066 | 0.861 ± 0.022 |
| SUM149 BREAST | 1.03 ± 0.095 | 1.03 ± 0.061 | 0.851 ± 0.04 | 0.747 ± 0.044 | 0.515 ± 0.056 | 0.395 ± 0.091 | 0.362 ± 0.013 | 0.341 ± 0.071 | 0.951 ± 0.21 | 0.911 ± 0.082 | 0.927 ± 0.11 | 0.84 ± 0.01 | 0.722 ± 0.054 | 0.624 ± 0.059 | 0.511 ± 0.084 | 0.336 ± 0.051 |
| SUM149.B1*.S BREAST | 1.06 ± 0.066 | 1.03 ± 0.035 | 1.02 ± 0.02 | 1.03 ± 0.043 | 0.962 ± 0.026 | 0.977 ± 0.036 | 0.833 ± 0.026 | 0.914 ± 0.043 | 1.092 ± 0.0038 | 1.09 ± 0.094 | 1.08 ± 0.031 | 1.05 ± 0.022 | 1.03 ± 0.015 | 0.962 ± 0.035 | 1.04 ± 0.011 | 0.911 ± 0.04 |
| SUM159 BREAST | 1.08 ± 0.076 | 1.14 ± 0.16 | 1.1 ± 0.14 | 1.13 ± 0.2 | 1.06 ± 0.065 | 0.931 ± 0.14 | 1.01 ± 0.052 | 0.984 ± 0.017 | 1.12 ± 0.075 | 1.05 ± 0.066 | 1.084 ± 0.01 | 1.06 ± 0.016 | 1.05 ± 0.051 | 0.948 ± 0.24 | 1.02 ± 0.079 | 0.993 ± 0.091 |
| SYO1 SYNOVIAL | 0.9794 ± 0.0088 | 0.993 ± 0.068 | 0.91 ± 0.023 | 0.929 ± 0.048 | 0.971 ± 0.055 | 0.974 ± 0.039 | 0.784 ± 0.018 | 0.422 ± 0.022 | 0.992 ± 0.055 | 0.95 ± 0.053 | 0.924 ± 0.045 | 0.881 ± 0.06 | 0.724 ± 0.025 | 0.6731 ± 0.0055 | 0.564 ± 0.044 | 0.429 ± 0.027 |
| T47D BREAST | 1.03 ± 0.044 | 1.11 ± 0.045 | 1.07 ± 0.041 | 1.04 ± 0.027 | 1.043 ± 0.0096 | 1.07 ± 0.034 | 1.05 ± 0.05 | 1.02 ± 0.046 | 1.01 ± 0.04 | 1 ± 0.052 | 0.986 ± 0.011 | 0.982 ± 0.027 | 0.997 ± 0.061 | 0.9606 ± 0.0086 | 0.971 ± 0.05 | 0.864 ± 0.023 |
| U2OS BONE | 1.03 ± 0.023 | 1.03 ± 0.025 | 1.02 ± 0.025 | 1.01 ± 0.038 | 1.04 ± 0.015 | 1.06 ± 0.027 | 0.906 ± 0.033 | 0.798 ± 0.034 | 1.08 ± 0.045 | 1.05 ± 0.069 | 1.06 ± 0.044 | 1.07 ± 0.04 | 1.05 ± 0.055 | 1.01 ± 0.046 | 0.945 ± 0.018 | 0.877 ± 0.032 |
| VCAP PROSTATE | 0.95 ± 0.04 | 0.769 ± 0.036 | 0.967 ± 0.08 | 1.04 ± 0.12 | 1.04 ± 0.048 | 0.996 ± 0.14 | 0.725 ± 0.078 | 0.406 ± 0.025 | 1.17 ± 0.067 | 1.1 ± 0.074 | 1.17 ± 0.089 | 1.04 ± 0.13 | 1.08 ± 0.09 | 1.09 ± 0.12 | 1.03 ± 0.089 | 0.922 ± 0.074 |
| VP229 BREAST | 1.02 ± 0.1 | 1.18 ± 0.056 | 0.663 ± 0.12 | 0.638 ± 0.086 | 0.306 ± 0.011 | 0.287 ± 0.026 | 0.2307 ± 0.00058 | 0.191 ± 0.029 | 1.07 ± 0.11 | 1.08 ± 0.13 | 1.01 ± 0.021 | 1.12 ± 0.19 | 0.886 ± 0.071 | 0.788 ± 0.068 | 0.879 ± 0.12 | 0.821 ± 0.046 |
| YAMATO SYNOVIAL | 1.23 ± 0.053 | 1.29 ± 0.18 | 1.3 ± 0.02 | 1.45 ± 0.17 | 1.31 ± 0.095 | 1.39 ± 0.068 | 1.31 ± 0.16 | 1.27 ± 0.077 | 1.38 ± 0.12 | 1.4 ± 0.08 | 1.49 ± 0.062 | 1.37 ± 0.11 | 0.894 ± 0.084 | 0.871 ± 0.092 | 0.819 ± 0.02 | 0.738 ± 0.044 |
| ZR751 BREAST | 1.07 ± 0.11 | 0.919 ± 0.043 | 0.791 ± 0.018 | 0.859 ± 0.076 | 0.762 ± 0.095 | 0.768 ± 0.04 | 0.625 ± 0.056 | 0.415 ± 0.087 | 1.11 ± 0.17 | 1.08 ± 0.13 | 1.08 ± 0.35 | 1.01 ± 0.1 | 1.1 ± 0.023 | 1.11 ± 0.086 | 1.14 ± 0.089 | 1.02 ± 0.14 |
